Data on 60 molecules can be found in US4393225A, “AI-77 Compounds and pharmaceutically acceptable salts thereof” (Asahi Kasei Kogyo Kabushiki Kaisha, priority 1979, dated 1983).

One assay has as its system ulcer. Put plainly: Anti-ulcer test (restraint and water immersion ulcer in rats, i.p.). It counts as in vivo, Male Wistar rats. Conditions: Rattus norvegicus, ip; 25 mg/kg i.p.; read-out: % Inhibition of Ulcer. In short, it runs like this: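 Male Wistar rats (~150 g), fasted 24 h, dosed i.p. with compound in physiological saline; 1 h later restrained and immersed to xiphisternum in 21 °C water for 6 h. Stomachs examined microscopically, ulcers scored 0–3, and percent inhibition calculated.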
For the molecule `CC(C)CC(NC(=O)C(O)C(O)C(N)CC(=O)NCCN1CCCCC1)C1Cc2cccc(O)c2C(=O)O1` (stereo not drawn) [VII-1-46], the inhibition in vivo at 25 mg/kg amounted to 94%. Same read-out and setting: in the case of `CC(C)CC(NC(=O)C(O)C(O)C(N)CC(=O)NCCCC1CCCC1)C1Cc2cccc(O)c2C(=O)O1` (stereo not drawn) [VII-1-34] it was 83%; in that of `CCOc1cccc2c1C(=O)OC(C(CC(C)C)NC(=O)C(OC(=O)C(C)C)C(O)C(N)CC(N)=O)C2` (stereo not drawn) [VII-6-2], 66%. The same measure, in the same setting: with `CCCCCCCCNC(CC(N)=O)C(O)C(O)C(=O)NC(CC(C)C)C1Cc2cccc(O)c2C(=O)O1` (stereo not drawn) [VII-10-3] the figure was 94%; with `CCCCNC(=O)CC(NC)C(O)C(O)C(=O)NC(CC(C)C)C1Cc2cccc(OCC)c2C(=O)O1` (stereo not drawn) [VII-23-2], 66%; with `CC(C)CC(NC(=O)C(O)C(O)C(N)CC(=O)NCCC1CCCCO1)C1Cc2cccc(O)c2C(=O)O1` (stereo not drawn) [VII-1-16], 94%. Still for that read-out and setting: with `Cc1ccc(CNC(=O)CC(N)C(O)C(O)C(=O)NC(CC(C)C)C2Cc3cccc(O)c3C(=O)O2)cc1` (stereo not drawn) [VII-1-22] the figure was 83%. As to `CCCCOc1cccc2c1C(=O)OC(C(CC(C)C)NC(=O)C(OC)C(O)C(CC(=O)NCC)NCC)C2` (stereo not drawn) [VII-16-4], the inhibition in vivo at 25 mg/kg amounted to 44%. Same read-out and setting: in the case of `COC(C(=O)NC(CC(C)C)C1Cc2cccc(OC(=O)C(C)C)c2C(=O)O1)C(O)C(CC(N)=O)NC(C)=O` (stereo not drawn) [VII-36-1] it was 66%; in that of `Cc1ccc(CCNC(=O)CC(N)C(O)C(O)C(=O)NC(CC(C)C)C2Cc3cccc(O)c3C(=O)O2)cc1` (stereo not drawn) [VII-1-35], 83%; in that of `CNC(CC(N)=O)C(O)C(O)C(=O)NC(CC(C)C)C1Cc2cccc(O)c2C(=O)O1` (stereo not drawn) [VII-19-1], 100%. Still for that read-out and setting: with `CCOC(C(=O)NC(CC(C)C)C1Cc2cccc(O)c2C(=O)O1)C(O)C(N)CC(N)=O` (stereo not drawn) [VII-8-3] the figure was 89%; with `CCCCCc1ccc(CNC(=O)CC(N)C(O)C(O)C(=O)NC(CC(C)C)C2Cc3cccc(O)c3C(=O)O2)cc1` (stereo not drawn) [VII-1-40], 94%; with `COC(C)CCNC(=O)CC(N)C(O)C(O)C(=O)NC(CC(C)C)C1Cc2cccc(O)c2C(=O)O1` (stereo not drawn) [VII-1-26], 94%. On the same count and under the same terms, with `CC(=O)Oc1cccc2c1C(=O)OC(C(CC(C)C)NC(=O)C(OC(=O)C(C)C)C(O)C(N)CC(N)=O)C2` (stereo not drawn) [VII-3-1] the figure was 78%. In the case of `CC(C)CC(NC(=O)C(O)C(O)C(N)CC(=O)NCc1ccccc1)C1Cc2cccc(O)c2C(=O)O1` (stereo not drawn) [VII-1-10], the inhibition in vivo at 25 mg/kg was determined as 94%. The same measure, in the same setting: in the case of `CCCCOC(C(=O)NC(CC(C)C)C1Cc2cccc(OC(C)=O)c2C(=O)O1)C(O)C(CC(N)=O)NCC` (stereo not drawn) [VII-18-1] it was 66%; in that of `CCCCCC(=O)OC(C)CCNC(=O)CC(N)C(O)C(O)C(=O)NC(CC(C)C)C1Cc2cccc(O)c2C(=O)O1` (stereo not drawn) [VII-1-29], 94%; in that of `CC(C)CC(NC(=O)C(O)C(O)C(N)CC(=O)NCCc1ccccc1)C1Cc2cccc(O)c2C(=O)O1` (stereo not drawn) [VII-1-13], 89%.

The same assay, now with this note: Rattus norvegicus, ip; 50 mg/kg i.p.; read-out: % Inhibition of Ulcer.
`CCCCCCCC(=O)NC1CC(=O)OC1C(O)C(=O)NC(CC(C)C)C1Cc2cccc(O)c2C(=O)O1` (stereo not drawn) [IIIa-1-9]: the inhibition in vivo at 50 mg/kg was 66%. On to `CCOc1cccc2c1C(=O)OC(C(CC(C)C)NC(=O)C(O)C1OC(=O)CC1NC(=O)Cc1ccc3ccccc3c1C)C2` (stereo not drawn) [IIIa-5-21], for which the inhibition in vivo at 50 mg/kg came to 33%. For the molecule `CCNC1CC(=O)OC1C(O)C(=O)NC(CC(C)C)C1Cc2cccc(OC(=O)CC)c2C(=O)O1` (stereo not drawn) [IIIa-21-9], the inhibition in vivo at 50 mg/kg is 66%.

Consider `CCC(=O)OC(C(=N)NC(CC(C)C)C1Cc2cccc(O)c2C(=O)O1)C(O)C(N)CC(=O)O` (stereo not drawn) [Vb-2-1], for which the inhibition in vivo at 50 mg/kg was determined as 66%. Same read-out and setting: in the case of `CC(=O)OC(C)CC(=O)NC1CC(=O)OC1C(O)C(=O)NC(CC(C)C)C1Cc2cccc(O)c2C(=O)O1` (stereo not drawn) [IIIa-1-48] it was 66%; in that of `CCCCCCCCC=CCCCCCCCC(=O)Oc1cccc2c1C(=O)OC(C(CC(C)C)NC(=O)C(O)C1OC(=O)CC1N)C2` (stereo not drawn) [IIIa-12-4], 72%; in that of `CC(C)CC(NC(=O)C(O)C1OC(=O)CC1NC(=O)c1nnnn1C)C1Cc2cccc(O)c2C(=O)O1` (stereo not drawn) [IIIa-1-27], 66%. Still for that read-out and setting: in the case of `CCCCCCCCCCCCCCCCCC(=O)NC1CC(=O)OC1C(OC(C)=O)C(=O)NC(CC(C)C)C1Cc2cccc(O)c2C(=O)O1` (stereo not drawn) [IIIa-2-4] it was 33%; in that of `CC(C)CC(NC(=O)C(O)C1C=CC(=O)O1)C1Cc2cccc(OCc3ccccc3)c2C(=O)O1` (stereo not drawn) [IVa-4-9], 33%; in that of `CCOc1cccc2c1C(=O)OC(C(CC(C)C)NC(=O)C(O)C1OC(=O)CC1NC(=O)C=Cc1ccoc1)C2` (stereo not drawn) [IIIa-5-56], 44%. The same measure, in the same setting: in the case of `COc1cccc2c1C(=O)OC(C(CC(C)C)NC(=O)C(O)C1OC(=O)CC1NCC(Cl)(Cl)Cl)C2` (stereo not drawn) [IIIa-22-7] it was 78%. With `CC(C)CC(NC(=O)C(O)C1C=CC(=O)O1)C1Cc2cccc(OCCCl)c2C(=O)O1` (stereo not drawn) [IVa-4-6], the inhibition in vivo at 50 mg/kg was 44%.

As for `CC(=O)Oc1cccc2c1C(=O)OC(C(CC(C)C)NC(=O)C(OC(C)=O)C1OC(=O)CC1NC(=O)c1ccc(OCCC(C)C)cc1)C2` (stereo not drawn) [IIIa-3-9], the inhibition in vivo at 50 mg/kg came out at 22%. Still for that read-out and setting: in the case of `CCCC(=O)Oc1cccc2c1C(=O)OC(C(CC(C)C)NC(=O)C(OC(C)=O)C1OC(=O)CC1N)C2` (stereo not drawn) [IIIa-11-6] it was 56%; in that of `CCCCNC1CC(=O)OC1C(O)C(=O)NC(CC(C)C)C1Cc2cccc(OCCC(C)C)c2C(=O)O1` (stereo not drawn) [IIIa-22-77], 94%; in that of `COc1cccc2c1C(=O)OC(C(CC(C)C)NC(=O)C(O)C1C=CC(=O)O1)C2` (stereo not drawn) [IVa-4-1], 44%.

For `CCC(=O)OC(C(=O)NC(CC(C)C)C1Cc2cccc(O)c2C(=O)O1)C1C=CC(=O)O1` (stereo not drawn) [IVa-1-2], the inhibition in vivo at 50 mg/kg is 44%. The same measure, in the same setting: with `CCCCCCCCCCCCCCCCCC(=O)Oc1cccc2c1C(=O)OC(C(CC(C)C)NC(=O)C(OCCCC)C1OC(=O)CC1NCC)C2` (stereo not drawn) [IIIa-26-5] the figure was 56%; with `CNC(CC(=O)O)C(O)C(O)C(=N)NC(CC(C)C)C1Cc2cccc(O)c2C(=O)O1` (stereo not drawn) [Vb-19-1], 100%.

Regarding `CCCCCSc1ccc(C(=O)NC2CC(=O)OC2C(O)C(=O)NC(CC(C)C)C2Cc3cccc(OCC)c3C(=O)O2)cc1` (stereo not drawn) [IIIa-5-46], the inhibition in vivo at 50 mg/kg stood at 33%. On the same count and under the same terms, in the case of `CCCCCCCCCCCCCCCCCC(=O)OC(C(=O)NC(CC(C)C)C1Cc2cccc(OCC)c2C(=O)O1)C1OC(=O)CC1N` (stereo not drawn) [IIIa-14-3] it was 44%; in that of `CCCCC(=O)OC(C(=O)NC(CC(C)C)C1Cc2cccc(O)c2C(=O)O1)C1C=CC(=O)O1` (stereo not drawn) [IVa-1-6], 44%.

In the case of `CCCCCCCCCCCCCCCCCC(=O)Oc1cccc2c1C(=O)OC(C(CC(C)C)NC(=N)C(O)C(O)C(N)CC(=O)O)C2` (stereo not drawn) [Vb-4-2], the inhibition in vivo at 50 mg/kg is 56%. Still for that read-out and setting: with `CCOC(=O)CCC(=O)NC1CC(=O)OC1C(O)C(=O)NC(CC(C)C)C1Cc2cccc(OCC)c2C(=O)O1` (stereo not drawn) [IIIa-5-36] the figure was 44%; with `CC(Br)=C(C)C(=O)NC1CC(=O)OC1C(O)C(=O)NC(CC(C)C)C1Cc2cccc(O)c2C(=O)O1` (stereo not drawn) [IIIa-1-80], 66%.

Regarding `CC(C)CCOc1ccc(C(=O)Oc2cccc3c2C(=O)OC(C(CC(C)C)NC(=O)C(O)C2OC(=O)CC2N)C3)cc1` (stereo not drawn) [IIIa-12-8], the inhibition in vivo at 50 mg/kg was determined as 72%.

Regarding `CCOc1cccc2c1C(=O)OC(C(CC(C)C)NC(=O)C(O)C1OC(=O)CC1NCCCCCO)C2` (stereo not drawn) [IIIa-22-53], the inhibition in vivo at 50 mg/kg is 78%.

On to `CCCCNC1CC(=O)OC1C(O)C(=O)NC(CC(C)C)C1Cc2cccc(OCCCl)c2C(=O)O1` (stereo not drawn) [IIIa-22-79], for which the inhibition in vivo at 50 mg/kg is 94%. On to `CCOc1cccc2c1C(=O)OC(C(CC(C)C)NC(=O)C(O)C1OC(=O)CC1NC(=O)c1cccn1C)C2` (stereo not drawn) [IIIa-5-29], for which the inhibition in vivo at 50 mg/kg was determined as 33%.

For `CCCCCOC(=O)c1ccc(C(=O)NC2CC(=O)OC2C(O)C(=O)NC(CC(C)C)C2Cc3cccc(OCC)c3C(=O)O2)cc1` (stereo not drawn) [IIIa-5-50], the inhibition in vivo at 50 mg/kg was found to be 33%. Take `CCCC(=O)NC1CC(=O)OC1C(O)C(=O)NC(CC(C)C)C1Cc2cccc(O)c2C(=O)O1` (stereo not drawn) [IIIa-1-3]: the inhibition in vivo at 50 mg/kg worked out at 66%. Same read-out and setting: with `CCCCCc1ccc(C(=O)NC2CC(=O)OC2C(O)C(=O)NC(CC(C)C)C2Cc3cccc(O)c3C(=O)O2)cc1` (stereo not drawn) [IIIa-1-76] the figure was 66%; with `CCCCCCCCCCCCCCCCCCOc1cccc2c1C(=O)OC(C(CC(C)C)NC(=O)C(O)C1OC(=O)CC1NC)C2` (stereo not drawn) [IIIa-31-3], 78%; with `CC(C)CC(NC(=O)C(OC(=O)C(Cl)(Cl)Cl)C1OC(=O)CC1NC(=O)C(Cl)(Cl)Cl)C1Cc2cccc(O)c2C(=O)O1` (stereo not drawn) [IIIa-2-1], 44%. `CCCCCCCCCCCCCCCCCC(=O)Oc1cccc2c1C(=O)OC(C(CC(C)C)NC(=O)C(O)C1C=CC(=O)O1)C2` (stereo not drawn) [IVa-3-9]: the inhibition in vivo at 50 mg/kg is 33%. The same measure, in the same setting: with `CNC1CC(=O)OC1C(OC(C)=O)C(=O)NC(CC(C)C)C1Cc2cccc(O)c2C(=O)O1` (stereo not drawn) [IIIa-28-1] the figure was 66%; with `CC(C)CC(NC(=O)C(O)C1OC(=O)CC1NC(=O)c1ccccc1)C1Cc2cccc(O)c2C(=O)O1` (stereo not drawn) [IIIa-1-14], 56%; with `COC(C(=O)NC(CC(C)C)C1Cc2cccc(O)c2C(=O)O1)C1OC(=O)CC1NCC(Cl)(Cl)Cl` (stereo not drawn) [IIIa-25-10], 66%. Same read-out and setting: with `CC(C)CC(NC(=O)C(O)C1OC(=O)CC1N)C1Cc2cccc(OCC3CCCO3)c2C(=O)O1` (stereo not drawn) [IIIa-13-14] the figure was 89%; with `CCOc1cccc2c1C(=O)OC(C(CC(C)C)NC(=O)C(O)C1OC(=O)CC1NC(=O)CC(C)OC(C)=O)C2` (stereo not drawn) [IIIa-5-47], 33%. The same measure, in the same setting: in the case of `CCCCOC(C(=N)NC(CC(C)C)C1Cc2cccc(OCc3ccccc3)c2C(=O)O1)C(O)C(N)CC(=O)O` (stereo not drawn) [Vb-7-3] it was 56%.
